Source: patent US20180185347A1, “TETRAHYDROCYCLOPENTA[B]INDOLE COMPOUNDS AND PHOSPHODIESTERASE INHIBITORS FOR THE TREATMENT OF THE SIGNS AND SYMPTOMS OF BHP” (Transition Therapeutics (Ireland 2) Limited, priority 2016, published 2018)
“Also recorded” adds a separate entry of the source.

Legend:
[1] = test system: PSA levels; assay: PSA in ED patients failing tadalafil (Study GPEC); assay type: in vivo, human; settings: for PSA levels: ED patients, alone or with tadalafil, PSA about 2.0 ng/ml or more
From the text: The results of this study are illustrated in FIG. 7. […] (see FIG. 8 and FIG. 9).

[2] = Rat bioavailability; assay type: in vivo
[3] = test system: orchidectomized rats; assay: Prostate and seminal vesicle weight in delayed ORX rat model (SV/Prostate risk); settings: for prostate or seminal vesical weights: delayed ORX rats, 2 or 8 weeks, doses up to 20-30 mg/kg
From the text: Orchidectomized (ORX) and sham-operated Wistar male rats were used (orchidectomized at 8 weeks of age and allowed to waste for 4 weeks). […] Rats were randomized and placed into treatment groups (n=6) based on body weight. Route of administration for all groups except testosterone enanthate (TE was given sub-cutaneously) was oral. At the end of 2 weeks of daily rats were euthanized, weighed & tissue harvested. Levator ani, prostates, and seminal vesicles were collected from each animal. Results are plotted as means±SE.

[4] = Clinical safety and laboratory parameters; settings: for hemoglobin and hematocrit: any dose tested, 12 weeks
[5] = test system: rats; assay: Rat toxicology program: prostate weight and atrophy; assay type: in vivo; set-up: key: “”: no effect observed
[6] = test system: orchidectomized rats; assay: Levator ani / bulbocavernous muscle weight in delayed ORX rat model; assay type: in vivo
From the text: Results are plotted as means±SE.
Following the androgen deficiency in the ORX model, the Levator ani- and bulbocavernous muscle weights decreased in size.

[7] = test system: PSA levels; settings: healthy volunteers, any time point or dose, data of WO 2016040234; cited from earlier work
[8] = test system: dogs; assay: Dog toxicology program: prostate weight and atrophy; assay type: in vivo; set-up: key to Prostate weight (mean % decrease): “”: no effect observed; settings: for Prostate weight (mean % decrease): dog

CC(C)OC(=O)N[C@H]1Cc2c(n(Cc3ccccn3)c3ccc(C#N)cc23)C1 [compound of Formula II, (S)-(7-cyano-4-pyridin-2-ylmethyl-1,2,3,4-tetrahydro-cyclopenta[b]indol-2-yl)-carbamic acid isopropyl ester]
PSA levels ([1]; listed as OPK88004): significant reduction in PSA levels | PSA levels ([1]; listed as OPK-88004): decrease in PSA levels | PSA ([1]; Study GPEC, 1 mg and 5 mg for 12 weeks): not associated with increases in PSA | bioavailability ([2]; in vivo, read-out: Rat F %): 63% | Rat F % ([2]; listed as TT701): 63% | changes in the prostate of orchidectomized rats ([3]; 30 mg/kg, the highest dose examined): did not induce changes | prostate or seminal vesical weights [3]: had no effect; also recorded: minimal accrual SV/Prostate risk | prostate or seminal vesical weights ([3]; listed as TT701): minimal accrual SV/Prostate risk | HDL cholesterol levels and apolipoprotein A1 ([4]; Study GPEC): decreased | testosterone ([4]; Study GPEC, 12-week, elderly men, with reduction of SHBG): clinically meaningful decrease | systolic blood pressure, diastolic blood pressure, or heart rate ([4]; clinical studies): did not yield any significant changes | decrease in the levels of endogenous testosterone ([4]; clinical studies in patients with androgen deficiency): 20-30% | total bilirubin, GGT, or alkaline phosphatase ([4]; clinical studies, any dose): no significant increases | hemoglobin and hematocrit ([4]; clinical): no increases | hemoglobin and hematocrit ([4]; clinical, listed as TT701): no change in Hematocrit | immunotoxicity safety signal ([4]; clinical, to date): no immunotoxicity safety signal has been observed | dose demonstrated safe in clinical studies ([4]; human, in vivo): up to 1000 mgs/day | decrease in HDL ([4]; patients, 5 mg for 12 weeks): 20% | liver transaminases (AST or ALT) ([4]; phase 2 study, three subjects, two ≥2×ULN, one ≥3×ULN): transient abnormal AST or ALT | Prostate weight (mean % decrease) ([5]; 1+ months, 15 mg/kg/day): “” | Prostate weight (mean % decrease) ([5]; 1+ months, 150 mg/kg/day): “” | Prostate weight (mean % decrease) ([5]; 1+ months, 1500 mg/kg/day): “” | Prostate weight (mean % decrease) ([5]; 6+ months, 15 mg/kg/day): “” | Prostate weight (mean % decrease) ([5]; 6+ months, 150 mg/kg/day): ^↓30% | Prostate weight (mean % decrease) ([5]; 6+ months, 1500 mg/kg/day): ^↓34% | Prostate weight (mean % decrease) ([5]; Male Fertility (3 months), 3 mg/kg/day): “” | Prostate weight (mean % decrease) ([5]; Male Fertility (3 months), 30 mg/kg/day): ^↓23% | Prostate weight (mean % decrease) ([5]; Male Fertility (3 months), 1000 mg/kg/day): ^↓39% | ED50 ([6]; Rattus norvegicus, read-out: ED50 for the levator ani muscle): 1 to 3 mg/kg | Levator ani- and bulbocavernous muscle weights ([6]; delayed ORX rat, 8 weeks, 1 to 3 mg/kg/day): increased significantly | PSA levels, change from baseline vs placebo [7]: no significant changes from baseline | Prostate weight (mean % decrease) ([8]; 1+ months, 3 mg/kg/day): “” | Prostate weight (mean % decrease) ([8]; 1+ months, 30 mg/kg/day): “” | Prostate weight (mean % decrease) ([8]; 1+ months, 150 mg/kg/day): “” | Prostate weight (mean % decrease) ([8]; 6+ months, 3 mg/kg/day): ^↓63% | Prostate weight (mean % decrease) ([8]; 6+ months, 30 mg/kg/day): ^↓66% | Prostate weight (mean % decrease) ([8]; 6+ months, 150 mg/kg/day): ^↓75% | Prostate weight (mean % decrease) ([8]; 12 months, 3 mg/kg/day): ^↓60% | Prostate weight (mean % decrease) ([8]; 12 months, 10 mg/kg/day): ^↓62% | Prostate weight (mean % decrease) ([8]; 12 months, 100 mg/kg/day): ^↓80% | decreases in prostate weight ([8]; dogs, by 3 months (so in the source)): 60-75% | decrease in prostate size ([8]; normal dogs, six-month treatment period): 60%
